Reference: patent publication US7456170B2, “Triazolobenzodiazepines and their use as vasopressin antagonists” (Pfizer Inc., priority 2004, dated 2008)
Read-outs that look alike come from different tables or passages of the source.

Biological target: human V1A receptor (Homo sapiens, UniProt P37288)
Assay: V1A filter binding assay ([3H]-AVP binding to CHO-hV1A membranes)
Protocol: 1.0 V1A Filter Binding Assay
Receptor binding assays were performed on cellular membranes prepared from CHO cells stably expressing the human V1A receptor, (CHO-hV1A). The CHO-hV1A cell line was kindly provided under a licensing agreement by Marc Thibonnier, Dept. of Medicine, Case Western Reserve University School of Medicine, Cleveland, Ohio, CHO-hV1A cells were routinely maintained at 37° C. in humidified atmosphere with 5% CO2 in DMEM/Hams F12 nutrient mix supplemented with 10% fetal bovine serum, 2 mM L-glutamine, 15 mM HEPES and 400 μg/ml G418. For bulk production of cell pellets, adherent CHO-hV1A cells were grown to confluency of 90-100% in 850 cm^2 roller bottles containing a medium of DMEM/Hams F12 Nutrient Mix supplemented with 10% fetal bovine serum, 2 mM L-gitidtamine and 15 mM HEPES. Confluent CHO-hV1A cells were washed with phosphate-buffered saline (PBS), harvested into ice cold PBS and centrifuged at 1,000 rpm. Cell pellets were stored at −80° C. until use. […] Protein concentration was determined using Bradford reagent and BSA as a standard.
Protein linearity followed by saturation binding studies were performed on each new batch of membrane. […] Saturation binding studies were then performed using various concentrations of [^3H]-arginine vasopressin, [^3]-AVP (0.05 nM-100 nM) and the Kd and Bmax determined.
Compounds were tested for their effects on [^3H]-AVP binding to CHO-hV1A membranes, (^3H-AVP; specific activity 65.5 Ci/mmol: NEN Life Sciences). […] The plates were sealed and counted on a TopCount Microplate Scintillation Counter (Packard Instruments). Non-specific binding (NSB) was determined using 1 μM unlabelled d(CH2)5Tyr(Me)AVP ([β-mercapto-β,β-cyclopentamethylenepropionyl,0-Me-Tyr^2,Arg^8]-vasopressin) (βMCPVP), (Sigma). The radioligand binding data was analysed using a four parameter logistic equation with the min forced to 0%. […] Specific binding was calculated by subtracting the mean NSB cpm from the mean Total cpm. For test compounds the amount of ligand bound to the receptor was expressed as % bound=(sample cpm−mean NSB cpm)/specific binding cpm×100. […]

[1] = [3H]-AVP binding to CHO-hV1A membranes, screen 1.0, read-out: Ki

human V1A receptor, sequence (P37288 whole entry): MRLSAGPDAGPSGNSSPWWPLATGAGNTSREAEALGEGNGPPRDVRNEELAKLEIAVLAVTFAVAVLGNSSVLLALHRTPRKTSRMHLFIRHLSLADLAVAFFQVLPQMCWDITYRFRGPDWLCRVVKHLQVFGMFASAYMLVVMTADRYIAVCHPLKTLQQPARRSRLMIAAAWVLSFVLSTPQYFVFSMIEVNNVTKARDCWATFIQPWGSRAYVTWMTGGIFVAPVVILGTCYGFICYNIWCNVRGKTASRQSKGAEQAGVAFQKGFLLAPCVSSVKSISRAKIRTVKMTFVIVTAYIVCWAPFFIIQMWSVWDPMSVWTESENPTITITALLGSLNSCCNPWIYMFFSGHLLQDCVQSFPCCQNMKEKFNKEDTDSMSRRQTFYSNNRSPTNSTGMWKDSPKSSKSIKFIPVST

Row | SMILES | Ki [nM] | Ki [1] [nM]
1 | CS(=O)(=O)N1Cc2cc(Cl)ccc2-n2c(nnc2N2CCC(c3ccccn3)CC2)C1 [Example 3, 8-Chloro-5-(methylsulfonyl)-1-(4-pyridin-2-ylpiperidin-1-yl)-5,6-dihydro-4H-[1,2,4]triazolo[4,3-a][1,4]benzodiazepine] | 0.62 | 
2 | CN(C)S(=O)(=O)N1Cc2cc(Cl)ccc2-n2c(nnc2N2CCC(c3ccccc3)CC2)C1 [Example 8, 8-Chloro-N,N-dimethyl-1-(4-phenylpiperidin-1-yl)-4H-[1,2,4]triazolo[4,3-a][1,4]benzodiazepine-5(6H)-sulphonamide] |  | 0.36
3 | CS(=O)(=O)N1Cc2cc(Cl)ccc2-n2c(nnc2N2CCC(c3ccccc3)CC2)C1 [Example 6, 8-Chloro-5-(methylsulfonyl)-1-(4-phenylpiperidin-1-yl)-5,6-dihydro-4H-[1,2,4]triazolo[4,3-a][1,4]benzodiazepine] |  | 0.17
